Test results taken from patent US20220120736A1, “METHODS AND ASSAYS FOR MODULATING GENE TRANSCRIPTION BY MODULATING CONDENSATES” (Whitehead Institute for Biomedical Research, priority 2018, published 2022).

What was measured:
[1] = tested on: ER LBD-MED1 condensate in U2OS-Lac cells; experiment: LAC binding assay (ER LBD tethered to Lac array); assay type: cell-based; settings: for MED1-containing condensate formation at tethered ER LBD: U2OS-Lac cells, 45 minutes, 10 nM B-Estradiol or 1 uM 4-Hydroxytamoxifen
Method: Constructs were assembled by NEB HIFI cloning in pSV2 mammalian expression vector containing an SV40 promoter driving expression of a CFP-LacI fusion protein. The activation domains and mutant activation domains of ESR1 were fused by the c-terminus to this recombinant protein, joined by the linker sequence […] (SEQ ID NO: 14). For some experiments a variant plasmid with mCherry in place of CFP was used. […] Cells were then plated on fibronectin-coated glass coverslips and transfected using lipofectamine 3000 (Thermofisher L3000015). For high MED1 conditions, a construct with a mammalian expression vector containing a PGK promoter driving the expression of MED1 fused to GFP was co-transfected. […] Following treatment, cells were fixed and immunofluorescence was performed with a MED1 antibody as described above.
For analysis of Lac array data, custom Python scripts were written to process and analyze image data gathered in Lac and tagged-protein channels. Nuclear stains were blurred with a Gaussian filter (sigma=2.0) and clustered into 2 clusters (nuclei and background) by K-means. The nuclei were then labeled with the python scikit-image package using the measure.label function. To segment Lac spots, the Lac image channel was blurred with a Gaussian filter (sigma=2.0), and an intensity threshold (mean+1.5*std) was applied to the image. Segmented regions (also determined by measure.label) were then filtered based on minimum area (150 pixels), maximum area (2000 pixels), circularity (c=4pi*area/perimeter^2; 0.8), and presence in a nucleus as defined by the mask described above. A norm enrichment ratio was calculated by determining the mean intensity of the tagged-protein in the segmented Lac spot and dividing it by the mean intensity of the tagged-protein present in the same whole nucleus.

[2] = tested on: MYC RNA expression in MCF7 cells; experiment: RT-qPCR of MYC RNA expression; assay type: cell-based, human; settings: MCF7 cells estrogen-deprived 3 days; 10 nM estrogen, or 10 nM estrogen and 5 uM 4-hydroxytamoxifen, 24 hours; normalized to GAPDH
Method: RNA was isolated by AllPrep Kit (Qiagen 80204) followed by cDNA synthesis using High-Capacity cDNA Reverse Transcription Kit (Applies Biosystems 4368814). qPCR was performed in biological and technical triplicate using Power SYBR Green mix (Life Technologies #4367659) on a QuantStudio 6 System (Life Technologies). The following oligos was used in the qPCR; Myc fwd […] (SEQ ID NO: 255), MYC rev […] (SEQ ID NO: 256), GAPDH fwd […] (SEQ ID NO: 257), GAPDH rev […] (SEQ ID NO: 258). Fold change was calculated and MYC expression values were normalized to GAPDH expression.

[3] = tested on: ER Y537S, ER D538G, ER-YAP1, ER-PCDH11X condensates with MED1; experiment: In vitro droplet formation assay, mutant ER GFP fusion proteins and MED1; assay type: biochemical; settings: all four mutant ER proteins; ligand 100 uM
Method: Recombinant GFP or mCherry fusion proteins were concentrated and desalted to an appropriate protein concentration and 125 mM NaCl using Amicon Ultra centrifugal filters (30K MWCO, Millipore). Recombinant proteins were added to solutions at varying concentrations with indicated final salt and 10% PEG-8000 as crowding agent in Droplet Formation Buffer (50 mM Tris-HCl pH 7.5, 10% glycerol, 1 mM DTT). The protein solution was immediately loaded onto a homemade chamber comprising a glass slide with a coverslip attached by two parallel strips of double-sided tape. Slides were then imaged with an Andor confocal microscope with a 150× objective. Unless indicated, images presented are of droplets settled on the glass coverslip. […] One microliter of this concentrated stock was used in a 10 uL droplet formation reaction to achieve a final concentration of 100 uM. To calculate enrichment for the in vitro droplet assay, droplets were defined as a region of interest in FIJI by the MED1 scaffold channel, and the maximum signal of the ER client within that droplet was determined. Alternatively, maximum signal of MED1 was measured. In all cases, the maximum signal was divided by the background client signal in the image to generate a Cin/out.

Row | Structure (SMILES) | MED1-containing condensate formation at tethered ER LBD [1] | MED1 condensate formation at tethered ER LBD, dependence on estrogen ([1]; normal ER) | MYC RNA expression [2] | Condensate formation of mutant ER proteins with MED1 [3] | MED1 condensate generation by tethered ER LBD in the presence of tamoxifen ([1]; MED1 overexpressed) | MED1 condensate generation by tethered ER LBD in the presence of tamoxifen ([1]; normal MED1 levels)
1 | C[C@]12CC[C@@H]3c4ccc(O)cc4CC[C@H]3[C@@H]1CC[C@@H]2O [estrogen, B-Estradiol] | generated a MED1-containing condensate | only in the presence of estrogen | increase | estrogen-independent |  | 
2 | CC/C(=C(\c1ccccc1)c1ccc(OCCN(C)C)cc1)c1ccccc1 [tamoxifen] | prevented |  | reduced | tamoxifen-insensitive | generated a MED1 condensate | did not generate a MED1 condensate
